Source: article PMC11284790, “Targeting Myeloperoxidase Ameliorates Gouty Arthritis: A Virtual Screening Success Story” (Journal of Medicinal Chemistry, 2024)
Like-named read-outs stand apart in the source and are kept apart here.

Assays:
Human leukocyte MPO [1] = target: T1, Human leukocyte MPO (Homo sapiens, UniProt P05164); assay: MPO peroxidatic activity assay (AmplexRed oxidation); format: biochemical; set-up: Human leukocyte MPO (EC 1.7.1.11) was purchased from Planta Natural Products; purchased Planta Natural Products (Vienna, Austria); host or cells: human leukocytes
Method: MPO peroxidase activity was kinetically monitored using the artificial peroxidase substrate AmplexRed, which is oxidized to resorufin and can be detected by fluorescence.[34] Reactions were carried out in phosphate buffer (50 mM, pH 7.4), MPO (100 pM), cetyltrimethylammonium chloride (0.03%), diethylenetriaminepentaacetic acid (100 μM), AmplexRed (30 μM), and compounds (20 μM in 0.3% DMSO). The reaction was started by adding 2 μM hydrogen peroxide. The reaction product was assessed by fluorescence at λex = 530 and λem = 580 nm. The initial velocity was calculated by the slope of the linear regression in the first minutes of reaction. Inhibition is represented as a percentage of the control (vehicle).

MSU-induced paw edema [2] = assay: MSU-induced paw edema, oral treatment; format: in vivo, male C57BL/6 mice
Method: (§1) Paw volume (mL) was measured at various time points, including before injection (baseline, B), […] 1, 2, 3, 4, 5, and 6 h following MSU injection using a plethysmometer (Ugo Basile, Comerio, Italy) (Figure 7). For this, the injected hind paw was immersed into the dipping solution (6 mM NaCl diluted in distilled water and added with 2 mL/L of a wetting compound provided by the manufacturer) until the ankle. The extent of edema was quantified as a change in paw volume (Δ mL) by subtracting the basal paw volume from the volume of the paw measured at each time point. To evaluate the antiedematogenic effect of orally administered MPO inhibitors (p.o.), the animals were fasted for 1 h and then treated with equimolar doses of the following substances: vehicle (VEH: 5% DMSO; 0.5% tween 80 in PBS), mefenamic acid (30 mg/kg), RL 6 (33 mg/kg), RL 7 (54 mg/kg), RL 21 (30 mg/kg), or ZINC9089086 (34 mg/kg). After 1 h, the anesthetized mice (2% isoflurane, v/v in O2) received either the vehicle (PBS, 30 μL, i.pl.) or 1.5 mg/30 μL MSU (i.pl.). The paw volume was evaluated at the same time points as previously described. The percentage of edema inhibition by the compounds was calculated discounting the paw volume of mice that received oral or intraperitoneal vehicle and PBS intraplantar (VEH + VEH).

[3] = Taurine chloroamine scavenger assay; details: 15 min at 37 °C, TMB readout
Method: Taurine chloramine was prepared by mixing hypochlorous acid (2.81 mM) with taurine (5 mM), cetyltrimethylammonium chloride (0.03%), NaCl (140 mM), and diethylenetriaminepentaacetic acid (100 μM) in phosphate buffer (20 mM, pH 7.4). The system was kept at 37 °C for 5 min for complete chloramine taurine formation. The compounds were added to this mixture and incubated for 15 min at 37 °C. Taurine chloramine was quantified by the oxidation of TMB (2 mM) catalyzed by iodide (100 μM).[33]

MSU-induced paw edema [4] = assay: MSU-induced paw edema, intraperitoneal treatment; format: in vivo; details: for effect on paw edema over time: i.p. 30 min before MSU, mefenamic acid 30 mg/kg, RL6 3, 10, 30, RL7 0.3, 3, 30, ZINC9089086 3, 10, 30 mg/kg, 6 h
Method: MSU-induced edema was performed as previously described.[22] The compounds were prepared by dilution in a solution containing 0.5% Tween 80 and 5% DMSO and then resuspended in PBS prior to administration. The animals were treated intraperitoneally (i.p.) with the following substances: vehicle (VEH: 5% DMSO; 0.5% Tween 80 in PBS), mefenamic acid (a nonsteroidal anti-inflammatory drug at a dosage of 30 mg/kg), RL6 (at doses of 3, 10, and 30 mg/kg), RL7 (at doses of 0.3, 3, and 30 mg/kg), or ZINC9089086 (at doses of 3, 10, and 30 mg/kg).[31] After 30 min, the mice were anesthetized using inhaled isoflurane (2% v/v in O2). A hypodermic syringe with a 31-gauge needle (BD, Franklin Lakes, NJ, USA) was used to administer the vehicle (VEH: PBS, 30 μL) or MSU (1.5 mg/30 μL) via the intraplantar route (i.pl.), into the right hind paw (Figure 9).
as §1

IL-6 = assay: Paw tissue IL-6 level after MSU (ELISA); format: in vivo, male C57BL/6 mice; details: intraperitoneal pretreatment (RL6 30 mg/kg), tissue collected at 6 h
Method: The remaining part of the homogenate was treated with a solution of protease/phosphatase inhibitors (1 mM phenylmethylsulfonyl fluoride, 10 μg/mL leupeptin, and 10 μg/mL trypsin inhibitor) and centrifuged at 10,000g (10 min at 4 °C). The obtained supernatants were subjected to 1:2 dilution in PBS and subsequently used for the assessment of IL-1β and IL-6 using murine enzyme-linked immunosorbent assay kits, specifically a sandwich ELISA technique, following manufacturer’s instructions (BioLegend, CA, USA). The protein content within the samples was determined by using the Bradford method (1976). The results were quantified and expressed in pg/mg of protein (Bio-Rad, Hercules, CA, USA).[76]

Human leukocyte MPO [5] = target: T1, Human leukocyte MPO; assay: Oxidation of the compounds by MPO/H2O2 (intrinsic fluorescence decay); format: biochemical; set-up: Human leukocyte MPO (EC 1.7.1.11) was purchased from Planta Natural Products; purchased Planta Natural Products (Vienna, Austria); host or cells: human leukocytes; details: 1 μM compound; for compound oxidation by MPO/H2O2 in the presence of chloride (fluorescence) / compound oxidation by MPO/H2O2 in the absence of chloride (fluorescence): 10 nM MPO; for compound oxidation by MPO/H2O2 in the presence of chloride (fluorescence): 40 μM H2O2, 140 mM NaCl; for compound oxidation by MPO/H2O2 in the absence of chloride (fluorescence): 40 μM H2O2, no chloride
Method: Changes in the absorption and fluorescence spectra of RL6 and RL7 were determined by incubating 1 μM compounds in 0.3% DMSO and phosphate buffer (20 mM, pH 7.4) with or without MPO (10 nM), diethylenetriaminepentaacetic acid (100 μM), taurine (5 mM), cetyltrimethylammonium chloride (0.03%), and NaCl (140 mM). In the chloride-free system, NaCl and taurine were omitted, and cetyltrimethylammonium chloride was replaced by cetyltrimethylammonium bisulfate. The reaction was performed in the absence or presence of Tyr (50 μM) and was started by adding 40 μM hydrogen peroxide. RL6 and RL7 consumption was monitored by fluorescence at λex = 413/λem = 603 nm for RL6 or λex = 306/λem = 603 nm for RL7 in a microplate reader.

T1 sequence (P05164 279-745 limits assumed): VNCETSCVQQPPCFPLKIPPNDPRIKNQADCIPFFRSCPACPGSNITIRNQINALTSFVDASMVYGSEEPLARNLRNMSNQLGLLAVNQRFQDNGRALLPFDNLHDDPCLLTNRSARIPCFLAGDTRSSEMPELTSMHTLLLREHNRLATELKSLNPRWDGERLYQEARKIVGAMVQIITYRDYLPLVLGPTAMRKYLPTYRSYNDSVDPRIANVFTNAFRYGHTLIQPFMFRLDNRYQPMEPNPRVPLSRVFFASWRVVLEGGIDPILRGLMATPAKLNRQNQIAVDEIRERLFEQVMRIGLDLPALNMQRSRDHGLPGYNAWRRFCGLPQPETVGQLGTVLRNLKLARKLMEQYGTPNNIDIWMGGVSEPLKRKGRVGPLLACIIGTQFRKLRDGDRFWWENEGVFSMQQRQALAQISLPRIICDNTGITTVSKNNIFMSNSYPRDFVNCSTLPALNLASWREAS
T1 sequence (P05164 165-278 limits assumed): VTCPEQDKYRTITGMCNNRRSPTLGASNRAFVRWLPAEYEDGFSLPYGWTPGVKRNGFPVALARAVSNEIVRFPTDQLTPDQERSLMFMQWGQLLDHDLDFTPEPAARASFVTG

| SMILES | inhibition at 20 µM (Human leukocyte MPO [1]; 20 μM compound, 100 pM MPO, 30 μM AmplexRed, 2 μM H2O2, pH 7.4, read-out: % Inhibition (at 20 μM) Peroxidatic) | inhibition at 20 µM (Human leukocyte MPO [1]; supplementary csv copy of Table 1, read-out: % Inhibition (Peroxidatic)) | inhibition of edema vs VEH + MSU (MSU-induced paw edema [2]; 33 mg/kg po) | scavenger activity toward taurine chloramine [3] | reduction of paw edema (time-dependent AUC) vs VEH + MSU (MSU-induced paw edema [4]; 10 mg/kg i.p.) | reduction of paw edema (time-dependent AUC) vs VEH + MSU (MSU-induced paw edema [4]; 30 mg/kg i.p.) | acute toxicity observed in mice (MSU-induced paw edema [4]; during the in vivo tests) | effect on paw edema over time (MSU-induced paw edema [4]) | effect on IL-6 levels in hind paw tissue (IL-6) | compound oxidation by MPO/H2O2 in the presence of chloride (fluorescence) (Human leukocyte MPO [5]) | compound oxidation by MPO/H2O2 in the absence of chloride (fluorescence) (Human leukocyte MPO [5]) | compound oxidation by MPO/H2O2 in the presence of tyrosine (fluorescence) (Human leukocyte MPO [5]; 50 μM tyrosine) | % Inhibition (at 20 μM) Peroxidatic (Human leukocyte MPO [1]; 20 μM compound, 100 pM MPO, 30 μM AmplexRed, 2 μM H2O2, pH 7.4) | % Inhibition (Peroxidatic) (Human leukocyte MPO [1]; supplementary csv copy of Table 1) | inhibition of edema vs VEH + MSU (MSU-induced paw edema [2]; 54 mg/kg po) | reduction of paw edema (time-dependent AUC) vs VEH + MSU (MSU-induced paw edema [4]; 3 mg/kg i.p.) |
| --- | --- | --- | --- | --- | --- | --- | --- | --- | --- | --- | --- | --- | --- | --- | --- | --- |
| Nc1cc2c3c(cccc3c1)C(=O)N(N)C2=O [RL6] | 73 ± 13.4% | 73 ± 13.4% | 57.0% | did not scavenge taurine chloramine | 80.4% | 83.2% | no sign of acute toxicity | significantly prevented paw edema | no significant impact | did not undergo any alteration | did not undergo any alteration | No oxidation occurred | – | – | – | – |
| CN1CCc2nc3sc(C(=O)Nc4cccc(C#N)c4)c(N)c3cc2C1 [RL7] | – | – | – | did not scavenge the milder oxidant taurine chloroamine | – | 90.2% | – | inhibited paw edema at all of the tested doses | unable to decrease | further consumed in the full reaction system in the presence of chloride | not further enhanced by hydrogen peroxide/MPO | – | INACTIVE | INACTIVE | 74.3% | 82.8% |
